# Reference: patent US20050137135A1 (priority 2002, published 2005)
# “Also recorded” adds a separate entry of the source.
# Columns and labels:
# [1] = system: INS-1 cells (clone 832/13); test: Insulin release from INS-1 (832/13) cells; format: cell-based; settings: 10 nM GIP, 60 minutes, n=3
# Text: (§1) Cell passages 45-60 were used.
# [2] = system: caspase-3 activity in INS-1 (832/13) cells; test: Caspase-3 activity induced by glucose deprivation; format: cell-based; settings: 6 h; 100 nM GIP, 10 µM forskolin
# Procedure: (§2) INS-1 cells (clone 832/13) seeded into 6-well plates were serum starved for 12-24 h and subjected to glucose deprivation (RPMI with 0.1% BSA) or treatment with 2 mM streptozotocin (STZ). […] Following treatment, caspase-3 activity was determined after 2, 6, or 24 h according to the manufacturers' protocol (Molecular Probes, Eugene, Oreg., USA). Caspase-3 activity/well was corrected for total protein content using the BCA protein assay (Pierce, Roxford, II, USA).
# [3] = in vivo; cited from earlier work
# INS-1 (832/13) cells [4] = test: Cell survival during glucose deprivation (CYQUANT); format: cell-based
# Procedure: as §1
# Cells were seeded into 96-well plates (5×10^4 cells/well) prior to experimentation. […] Cells were quantified using the CYQUANT™ assay system (Molecular Probes, Eugene, Oreg., USA) according to the manufacturers' protocol.
# Cell survival was assessed in the presence of prolonged glucose deprivation.
# INS-1 (832/13) cells [5] = test: Glucose dependent β-cell proliferation (CYQUANT cell quantification); format: cell-based
# Procedure: as §1
# Cells were seeded into 96-well plates (5×10^4 cells/well) prior to experimentation. […] Thereafter, cells were washed with KRBH (115 mM NaCl, 4.7 mM KCl, 1.2 mM KH2PO4, 10 mM NaHCO3, 1.28 mM CaCl2, 1.2 mM MgSO4 containing 10 mM HEPES and 0.1% bovine serum albumin, pH 7.4) and frozen at −70° C. until assayed. Cells were quantified using the CYQUANT™ assay system (Molecular Probes, Eugene, Oreg., USA) according to the manufacturers' protocol. Final cell numbers were always greater than the initial number plated in assessing cellular proliferation.
# [6] = system: caspase-3 activity in INS-1 (832/13) cells; test: Caspase-3 activity induced by streptozotocin (STZ); format: cell-based; settings: added 10 minutes prior to and during a 30 minute STZ exposure
# Procedure: as §2
smiles,measurement,setting,value
"CC[C@H](C)[C@H](NC(=O)[C@H](CO)NC(=O)[C@H](Cc1ccc(O)cc1)NC(=O)[C@H](CC(=O)O)NC(=O)[C@H](CO)NC(=O)[C@@H](NC(=O)[C@H](Cc1ccccc1)NC(=O)[C@@H](NC(=O)CNC(=O)[C@H](CCC(=O)O)NC(=O)[C@H](C)NC(=O)[C@@H](N)Cc1ccc(O)cc1)[C@@H](C)O)[C@@H](C)CC)C(=O)N[C@@H](C)C(=O)N[C@@H](CCSC)C(=O)N[C@@H](CC(=O)O)C(=O)N[C@@H](CCCCN)C(=O)N[C@H](C(=O)N[C@@H](Cc1c[nH]cn1)C(=O)N[C@@H](CCC(N)=O)C(=O)N[C@@H](CCC(N)=O)C(=O)N[C@@H](CC(=O)O)C(=O)N[C@@H](Cc1ccccc1)C(=O)N[C@H](C(=O)N[C@@H](CC(N)=O)C(=O)N[C@@H](Cc1c[nH]c2ccccc12)C(=O)N[C@@H](CC(C)C)C(=O)N[C@@H](CC(C)C)C(=O)N[C@@H](C)C(=O)N[C@@H](CCC(N)=O)C(=O)N[C@@H](CCCCN)C(=O)NCC(=O)N[C@@H](CCCCN)C(=O)N[C@@H](CCCCN)C(=O)N[C@@H](CC(N)=O)C(=O)N[C@@H](CC(=O)O)C(=O)N[C@@H](Cc1c[nH]c2ccccc12)C(=O)N[C@@H](CCCCN)C(=O)N[C@@H](Cc1c[nH]cn1)C(=O)N[C@@H](CC(N)=O)C(=O)N[C@H](C(=O)N[C@H](C(=O)N[C@@H](CCC(N)=O)C(=O)O)[C@@H](C)O)[C@@H](C)CC)C(C)C)[C@@H](C)CC [GIP, glucose-dependent insulinotropic polypeptide]",5.5 mM glucose stimulated insulin secretion,[1],2.44±0.29 % total insulin secreted
same,0 mM glucose induced caspase-3 activity,[2],completely reversed; also recorded: ablates
same,biological half-life,[3],~2 min
same,effect on cell survival during glucose deprivation,INS-1 (832/13) cells [4]; 0 mM glucose,promotes INS-1 (832/13) cell survival during glucose deprivation in a concentration-dependent manner
same,protection against wortmannin-induced cell loss,"INS-1 (832/13) cells [4]; n=3, p<0.05",partially protected; also recorded: partially reversed
same,potentiation of glucose dependent β-cell proliferation,INS-1 (832/13) cells [5]; 11 mM glucose,potentiates 11 mM glucose induced cell growth
same,"cell proliferation, % of growth in the presence of 5.5 mM glucose","INS-1 (832/13) cells [5]; 11 mM glucose, 100 nM, FIG. 15A",158±16%
same,"cell growth, % of that measured in the presence of 5.5 mM glucose","INS-1 (832/13) cells [5]; separate experiment, 100 nM, n=4",131±7%
same,STZ induced caspase-3 activity,[6],protect against the pro-apoptotic (caspase-3 activating) effects of STZ completely; also recorded: ablates
